Blank lines part the entries; values can stand above or below the compound they belong to.
Key:
Type in all cases: cell-based
[1] = target: NMDARs in cultured hippocampal neurons (Rattus norvegicus, UniProt P35439+Q00959); assay: Whole-cell voltage clamp recordings of NMDAR currents in cultured hippocampal/cortical neurons; details: for Potentiation or depression of NMDAR-currents: tested in a similar fashion as Npam02, FIG. 4c
GluN1/GluN2A NMDARs = target: T1, GluN1/GluN2A NMDARs (Rattus norvegicus, UniProt P35439+Q00959); assay: Whole-cell patch clamp recordings in HEK293 cells transfected with GluN1/GluN2A
T1 construct: expressed in transfected cells; host or cells: HEK293
Description: Cells were transfected with a combination of pcDNA3-CMV expression vectors, each of which expressed one of the rat recombinant (GluN2AWT, GluN1WT, GluN2BWT) subunits. The sequences of all plasmids were confirmed by automated DNA sequencing. Human Embryonic Kidney 293 (HEK293 cells) were cultured in Dulbecco's Modified Eagle's Medium (DMEM) (Invitrogen) supplemented with 10% fetal bovine serum (FBS). When HEK293 cells achieved 90% confluence, plasmids of either GluN1 & GluN2A or GluN1 & GluN2B were co-transfected into the cells using Lipofectamine 2000 (Invitrogen, 11668019) according to manufacturer's instructions. HEK293 cells were then maintained in the 37° C. incubator with […] and 5% CO2 for 48 hrs before being used in experiments. The transfection ratios for the NMDAR subunit combinations were all 1:1 (GluN1/GluN2A or GluN1/GluN2B).
Whole cell patch-clamp recordings were performed under voltage-clamp mode using an Axopatch 200B or 1D patch-clamp amplifier (Molecular Devices). Whole-cell currents were recorded at a holding potential of −60 mV unless indicated elsewhere, and signals were filtered at 2 kHz, digitized at 10 kHz (Digidata 1322A). Recording pipettes (3-5 MΩ) were filled with intracellular solution containing (mM): CsCl 140, HEPES 10, Mg-ATP 4, QX-314 5, pH 7.20; osmolarity, 290-295 mOsm. BAPTA (10 mM) was added in the intracellular solution (unless otherwise specified). The coverslips were continuously superfused with extracellular solution containing (mM): NaCl 140, KCl 5.4, HEPES 10, CaCl2 1.3, glucose 20, pH 7.4; osmolarity, 305-315 mOsm. NMDA-induced currents were applied by NMDA through perfusion fast-step (Warner Instruments). With perfusion fast-step system, NMDA application was achieved by using a two-square barrel glass tubing and depending on the age of the cultured neurons, CNQX (10 μM), TTX (0.5 μM) or BIC (10 μM) were added in the extracellular solution to minimize the activation of ionotropic glutamate receptors and voltage-gated sodium channels, respectively. All experiments were performed at room temperature. Recordings from at least six HEK293 cells/neurons were performed for all active compounds. Data were pooled among HEK293 cells or primary neurons and composite dose-response data were fitted by the equation Percentage Response=100×Relative Efficacy/[1+(EC50/Concentration)nH], where EC50 is the concentration of agonist that produces a half-maximal response, relative efficacy is the response at maximally effective concentration relative to the maximal response of glutamate, and nH is the Hill slope.
GluN1/GluN2A NMDAR subtypes are an attractive target for positive allosteric modulation. The present inventors employed in silico computational drug discovery methods to conduct a virtual screen of purchasable lead-like compounds from the ZINC database (Irwin, J., et al. Abstr Pap Am Chem Soc (2005) 230:U1009) and some synthetic compounds to identify potential GluN1/GluN2A-NMDAR modulators. The in silico methods included large-scale docking against the interstice interface of the GluN1/GluN2A heterodimer and consensus scoring to select compounds for empirical testing. Candidate compounds were further screened by using GluN1/GluN2A transiently transfected in human embryonic kidney (HEK293) cells and tested by whole-cell patch clamp recordings.
The inventors used transiently transfected HEK293 cells expressing either GluN1/GluN2A or GluN1/GluN2B NMDARs and tested by whole-cell voltage patch clamp recordings to see whether selected compounds were controlling the subtype selectivity profile of the drugs.
Whole-cell patch clamp recordings were performed to measure glutamate evoked currents with chloride-based pipette solutions at a holding potential of −60 mV.

GluN1/GluN2B NMDARs = target: T2, GluN1/GluN2B NMDARs (Rattus norvegicus, UniProt P35439+Q00960); assay: Whole-cell patch clamp recordings in HEK293 cells transfected with GluN1/GluN2B; details: HEK293, Table 2, read-out: Normalized Potentiation GluN1/GluN2B
T2 construct: expressed in transfected cells; host or cells: HEK293

[2] = target: T3, GluN2A NMDARs in GluN2B-lacking neurons (Mus musculus, UniProt P35436+P35438); assay: Whole-cell recordings in GluN2B-knockout cortical neurons; details: 0.2 μM with NMDA 20 μM; conditional GluN2B-knockout neurons
T3 construct: endogenous in cells; host or cells: primary cortical neurons from GluN2B-knockout mouse embryos

[3] = HEK293, Table 2, read-out: Normalized Potentiation GluN1/GluN2A

Chain of NMDARs in cultured hippocampal neurons (Q00959 23-1464, other chains not shown): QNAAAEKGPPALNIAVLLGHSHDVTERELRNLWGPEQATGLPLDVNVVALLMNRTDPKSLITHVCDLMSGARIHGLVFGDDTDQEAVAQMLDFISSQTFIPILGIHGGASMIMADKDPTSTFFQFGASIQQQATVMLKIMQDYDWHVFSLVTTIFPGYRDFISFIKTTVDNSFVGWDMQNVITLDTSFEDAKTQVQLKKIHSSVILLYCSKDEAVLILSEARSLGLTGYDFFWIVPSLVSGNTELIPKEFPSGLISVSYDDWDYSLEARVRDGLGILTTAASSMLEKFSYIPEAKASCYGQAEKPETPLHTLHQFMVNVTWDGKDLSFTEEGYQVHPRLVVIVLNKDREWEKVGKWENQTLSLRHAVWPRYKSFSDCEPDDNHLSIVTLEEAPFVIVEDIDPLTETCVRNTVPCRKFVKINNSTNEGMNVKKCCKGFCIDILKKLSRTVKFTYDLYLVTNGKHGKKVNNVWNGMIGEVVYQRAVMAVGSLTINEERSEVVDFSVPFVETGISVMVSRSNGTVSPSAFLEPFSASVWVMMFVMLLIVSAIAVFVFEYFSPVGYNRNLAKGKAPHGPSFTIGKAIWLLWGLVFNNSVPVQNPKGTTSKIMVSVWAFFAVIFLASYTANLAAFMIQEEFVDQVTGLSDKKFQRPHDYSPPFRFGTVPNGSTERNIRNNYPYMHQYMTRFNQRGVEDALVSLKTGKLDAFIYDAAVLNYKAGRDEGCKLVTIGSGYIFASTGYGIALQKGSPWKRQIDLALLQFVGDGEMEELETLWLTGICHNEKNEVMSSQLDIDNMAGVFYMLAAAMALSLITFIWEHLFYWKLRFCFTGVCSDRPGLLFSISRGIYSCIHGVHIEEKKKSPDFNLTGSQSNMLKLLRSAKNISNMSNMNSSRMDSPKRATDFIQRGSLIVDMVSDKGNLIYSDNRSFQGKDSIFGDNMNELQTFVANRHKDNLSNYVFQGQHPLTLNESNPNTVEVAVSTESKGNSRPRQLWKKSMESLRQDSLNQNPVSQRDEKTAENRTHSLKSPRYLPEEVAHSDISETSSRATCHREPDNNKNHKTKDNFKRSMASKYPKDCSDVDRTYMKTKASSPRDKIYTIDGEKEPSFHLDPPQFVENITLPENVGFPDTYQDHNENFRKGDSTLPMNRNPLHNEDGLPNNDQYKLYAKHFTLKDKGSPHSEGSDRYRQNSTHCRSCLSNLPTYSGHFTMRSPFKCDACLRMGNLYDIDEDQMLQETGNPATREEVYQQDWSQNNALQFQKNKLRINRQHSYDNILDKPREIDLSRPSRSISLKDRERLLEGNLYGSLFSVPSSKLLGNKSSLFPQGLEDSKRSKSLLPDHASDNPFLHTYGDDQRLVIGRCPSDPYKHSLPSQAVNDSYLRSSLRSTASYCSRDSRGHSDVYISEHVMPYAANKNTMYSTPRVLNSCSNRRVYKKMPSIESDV
T1 sequence (Q00959 23-1464, other chains not shown): as above
T2 sequence (Q00960 27-1482, other chains not shown): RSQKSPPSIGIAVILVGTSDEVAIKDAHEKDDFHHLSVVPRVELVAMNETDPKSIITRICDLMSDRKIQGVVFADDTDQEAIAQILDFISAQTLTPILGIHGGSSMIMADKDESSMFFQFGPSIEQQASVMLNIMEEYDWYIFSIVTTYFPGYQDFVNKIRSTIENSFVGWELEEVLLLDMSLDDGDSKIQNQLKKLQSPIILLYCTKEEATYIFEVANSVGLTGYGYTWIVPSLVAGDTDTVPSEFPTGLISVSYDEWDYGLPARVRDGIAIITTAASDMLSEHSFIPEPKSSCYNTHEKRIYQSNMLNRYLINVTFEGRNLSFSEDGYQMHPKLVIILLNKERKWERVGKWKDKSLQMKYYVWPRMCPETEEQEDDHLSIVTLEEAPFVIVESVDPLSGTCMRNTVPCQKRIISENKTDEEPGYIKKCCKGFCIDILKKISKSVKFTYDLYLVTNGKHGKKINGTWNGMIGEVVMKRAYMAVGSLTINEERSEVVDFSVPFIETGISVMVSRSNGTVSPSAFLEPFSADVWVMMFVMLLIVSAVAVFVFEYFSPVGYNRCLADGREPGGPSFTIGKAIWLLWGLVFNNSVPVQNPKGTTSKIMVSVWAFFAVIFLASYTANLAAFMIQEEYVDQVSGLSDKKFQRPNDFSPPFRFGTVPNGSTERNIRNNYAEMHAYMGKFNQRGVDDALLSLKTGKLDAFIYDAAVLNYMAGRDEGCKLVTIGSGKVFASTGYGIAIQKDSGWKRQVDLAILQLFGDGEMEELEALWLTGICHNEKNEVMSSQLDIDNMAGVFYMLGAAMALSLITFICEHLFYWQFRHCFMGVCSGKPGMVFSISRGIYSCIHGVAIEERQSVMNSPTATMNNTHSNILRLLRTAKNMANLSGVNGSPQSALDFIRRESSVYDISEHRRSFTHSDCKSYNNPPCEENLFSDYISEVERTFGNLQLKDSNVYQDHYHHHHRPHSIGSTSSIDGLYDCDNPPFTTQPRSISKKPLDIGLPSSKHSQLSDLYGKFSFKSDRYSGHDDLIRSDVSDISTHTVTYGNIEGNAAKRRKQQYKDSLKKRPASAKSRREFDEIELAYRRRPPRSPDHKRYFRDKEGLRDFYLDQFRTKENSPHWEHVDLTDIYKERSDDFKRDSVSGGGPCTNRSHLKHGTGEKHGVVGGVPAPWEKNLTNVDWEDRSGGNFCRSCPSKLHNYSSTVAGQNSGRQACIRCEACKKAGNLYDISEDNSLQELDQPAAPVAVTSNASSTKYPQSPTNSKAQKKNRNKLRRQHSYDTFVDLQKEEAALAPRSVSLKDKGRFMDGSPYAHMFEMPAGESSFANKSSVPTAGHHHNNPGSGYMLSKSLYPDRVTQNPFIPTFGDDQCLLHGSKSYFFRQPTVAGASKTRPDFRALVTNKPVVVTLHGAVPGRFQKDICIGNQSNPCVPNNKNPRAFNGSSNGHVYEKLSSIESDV

Structure (SMILES): CN[C@H](CC(=O)O)C(=O)O [NMDA, reference compound]
pEC50 of NMDA dose-response curve ([1]; cultured hippocampal neurons, FIG. 13): 1.484±0.082 μM
EC50 ([1]; cultured hippocampal neurons, FIG. 13, read-out: EC50 of NMDA dose-response curve): 30.5 ± 11.7 µM

Structure (SMILES): N[C@@H](CCCP(=O)(O)O)C(=O)O [APV, reference compound]
Block of currents ([1]; 50 μM): blocked all currents

Structure (SMILES): C[C@H](NC(c1cccc2[nH]c(=O)c(=O)[nH]c12)P(=O)(O)O)c1ccc(Br)cc1 (stereo partly shown) [NVP-AAM007, reference compound]
Block of NMDAR-currents [2]: 90.73±1.11%
Block of the Npam02-increased NMDAR currents (GluN1/GluN2A NMDARs; 0.2 μM co-applied with both co-agonists): completely blocked

Further lines, with some results ahead:

activation at 100 µM (GluN1/GluN2A NMDARs; [3]): 26.2 ± 2.24%
Normalized Potentiation (GluN1/GluN2A NMDARs; Table 1, positive modulation of GluN1/GluN2A NMDARs, concentration not given): 2.61 ± 9.69%
activation at 100 µM (GluN1/GluN2B NMDARs): -28 ± 5.11%
Structure (SMILES): O=C(N/N=C/c1cccc(O)c1O)c1ccccc1 [Npam01, (E)-N′-(2,3-dihydroxybenzylidene)benzohydrazide]
Potentiation or depression of NMDAR-currents [1]: no observable potentiation or depression effect

activation at 100 µM (GluN1/GluN2A NMDARs; [3]): 33.7 ± 4.84%
activation at 100 µM (GluN1/GluN2B NMDARs): -54.6 ± 5.48%
Structure (SMILES): Cc1ccccc1C(=O)N/N=C/c1cccc(O)c1O [Npam04, (E)-N′-(2,3-dihydroxybenzylidene)-2-methylbenzohydrazide]
Potentiation or depression of NMDAR-currents [1]: no observable potentiation or depression effect

activation at 100 µM (GluN1/GluN2A NMDARs; [3]): 45.7 ± 3.87%
activation at 25 µM (GluN1/GluN2B NMDARs; 25 μM): -20.9 ± 3.69%
Structure (SMILES): COc1cccc(/C=N/NC(=O)c2ccccc2I)c1O [Npam66, (E)-N′-(2-hydroxy-3-methoxybenzylidene)-2-iodobenzohydrazide]

activation at 50 µM (GluN1/GluN2A NMDARs; HEK293, Table 2, 50 μM (footnote *), read-out: Normalized Potentiation GluN1/GluN2A): -24.1 ± 2.47%
activation at 50 µM (GluN1/GluN2B NMDARs; 50 μM (footnote *)): -45.6 ± 3.67%
Structure (SMILES): O=C(N/N=C/c1cccc(O)c1O)c1cc(O)cc(O)c1 [Npam70, (E)-N′-(2,3-dihydroxybenzylidene)-3,5-dihydroxybenzohydrazide]
